From the Kinase Knowledgebase extract (Sharma et al. 2016)

Molecular target: EGFR (UniProt P00533)
Sequence (P00533 whole entry, looked up): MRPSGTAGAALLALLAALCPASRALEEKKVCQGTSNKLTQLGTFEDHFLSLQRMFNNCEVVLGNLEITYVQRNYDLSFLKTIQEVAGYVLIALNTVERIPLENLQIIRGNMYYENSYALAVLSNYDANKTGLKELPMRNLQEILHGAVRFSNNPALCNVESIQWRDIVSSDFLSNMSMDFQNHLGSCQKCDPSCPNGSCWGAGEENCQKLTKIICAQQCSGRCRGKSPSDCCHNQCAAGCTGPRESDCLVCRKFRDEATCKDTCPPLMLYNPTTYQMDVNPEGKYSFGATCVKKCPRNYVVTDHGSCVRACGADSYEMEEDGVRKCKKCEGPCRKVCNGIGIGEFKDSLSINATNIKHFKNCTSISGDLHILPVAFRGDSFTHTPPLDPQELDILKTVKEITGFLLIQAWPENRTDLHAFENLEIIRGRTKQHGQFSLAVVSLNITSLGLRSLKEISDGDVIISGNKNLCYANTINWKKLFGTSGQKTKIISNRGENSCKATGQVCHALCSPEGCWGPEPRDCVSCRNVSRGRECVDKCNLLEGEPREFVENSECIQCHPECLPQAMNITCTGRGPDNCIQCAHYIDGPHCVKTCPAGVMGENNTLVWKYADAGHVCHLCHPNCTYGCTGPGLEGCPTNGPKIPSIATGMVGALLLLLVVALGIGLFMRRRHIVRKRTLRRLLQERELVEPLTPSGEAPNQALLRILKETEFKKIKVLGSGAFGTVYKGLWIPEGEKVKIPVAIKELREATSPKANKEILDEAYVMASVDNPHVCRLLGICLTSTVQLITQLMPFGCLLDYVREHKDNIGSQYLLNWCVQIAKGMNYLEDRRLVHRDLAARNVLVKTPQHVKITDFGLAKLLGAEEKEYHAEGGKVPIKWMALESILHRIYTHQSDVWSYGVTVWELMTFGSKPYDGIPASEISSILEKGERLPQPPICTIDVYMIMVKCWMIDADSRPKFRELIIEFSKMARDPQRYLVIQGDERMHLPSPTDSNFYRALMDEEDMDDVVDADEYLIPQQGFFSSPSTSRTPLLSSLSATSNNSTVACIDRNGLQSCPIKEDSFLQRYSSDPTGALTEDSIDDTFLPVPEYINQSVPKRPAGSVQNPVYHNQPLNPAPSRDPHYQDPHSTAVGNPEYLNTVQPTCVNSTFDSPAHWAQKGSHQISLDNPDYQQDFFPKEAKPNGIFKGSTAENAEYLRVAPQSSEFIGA

Structure (SMILES)	IC50 [nM]
OCCN(CCO)c1cc2ncnc(Nc3cccc(Br)c3)c2cn1	12
CN(CCO)c1cc2ncnc(Nc3cccc(Br)c3)c2cn1	2.6
Cc1cccc(Nc2ncnc3cc(NCCCCN(C)C)ncc23)c1	5.5
Brc1cccc(Nc2ncnc3cc(NCCCn4ccnc4)ncc23)c1	0.512
OCCN(CCO)CCCNc1cc2ncnc(Nc3cccc(Br)c3)c2cn1	1.2
COc1cccc(Nc2ncnc3cc(N)ncc23)c1	132
Cc1cccc(Nc2ncnc3cc(NCCCn4ccnc4)ncc23)c1	3.5
Brc1cccc(Nc2ncnc3cc(NCCN4CCOCC4)ncc23)c1	3.2
CN(CC(O)CO)c1cc2ncnc(Nc3cccc(Br)c3)c2cn1 (stereo unspecified)	3.2
Fc1ccc2c(Nc3cccc(Br)c3)ncnc2n1	692
Brc1cccc(Nc2ncnc3cc(NCCCCN4CCOCC4)ncc23)c1	5.5
Brc1cccc(Nc2ncnc3cc(NCCCN4CCOCC4)ncc23)c1	1.9
CN1CCN(CCCNc2cc3ncnc(Nc4cccc(Br)c4)c3cn2)CC1	5
CN(C)CCCCCNc1cc2ncnc(Nc3cccc(Br)c3)c2cn1	8.5
CNc1ccc2ncnc(Nc3cccc(Br)c3)c2n1	3.2
Cc1cccc(Nc2ncnc3cc(NCCCN4CCN(C)CC4)ncc23)c1	5.6
Brc1cccc(Nc2ncnc3cnc(NCCc4c[nH]cn4)nc23)c1	0.25
CN(C)CCN(C)c1cc2ncnc(Nc3cccc(Br)c3)c2cn1	40
Nc1cc2ncnc(Nc3ccc(Br)cc3)c2cn1	25.7
Brc1cccc(Nc2ncnc3cnc(NCCN4CCOCC4)nc23)c1	0.813

Second part, the compound after the results:

IC50 [nM]	Structure (SMILES)
0.28	O=C(O)CCCNc1cc2ncnc(Nc3cccc(Br)c3)c2cn1
29.5	CC(=O)Nc1cc2ncnc(Nc3cccc(Br)c3)c2cn1
1.5	O=C(O)CNc1cc2ncnc(Nc3cccc(Br)c3)c2cn1
9.3	OCCN(CCO)CCNc1cc2ncnc(Nc3cccc(Br)c3)c2cn1
0.25	OCCNc1cc2ncnc(Nc3cccc(Br)c3)c2cn1
39.8	COc1cc2ncnc(Nc3cccc(Br)c3)c2cn1
14.1	OCN(CO)c1cc2ncnc(Nc3cccc(Br)c3)c2cn1
0.62	O=C(O)CCNc1cc2ncnc(Nc3cccc(Br)c3)c2cn1
16.2	CN(CC(=O)O)c1cc2ncnc(Nc3cccc(Br)c3)c2cn1
0.912	Brc1cccc(Nc2ncnc3cc(NCCc4c[nH]cn4)ncc23)c1
7.2	NNc1cc2ncnc(Nc3cccc(Br)c3)c2cn1
7.4	CN(C)CCCCNc1cc2ncnc(Nc3cccc(Br)c3)c2cn1
0.93	OCC(O)CNc1cc2ncnc(Nc3cccc(Br)c3)c2cn1 (stereo unspecified)
1.4	O=S(=O)(O)CCNc1cc2ncnc(Nc3cccc(Br)c3)c2cn1
45.7	CN(C)CCNc1cc2ncnc(Nc3cccc(Br)c3)c2cn1
8.9	CN(C)CCCNc1cc2ncnc(Nc3cccc(Br)c3)c2cn1
